Measurements taken from patent US7504400B2, “MTP inhibiting aryl piperydines or piperazines substituted with 5-membered heterocycles” (Janssen Pharmaceutica N.V., priority 2004, dated 2009).

System: Secretion of ApoB
Experiment: Quantification of the secretion of ApoB in HepG2 cells
Type: cell-based
Conditions: Homo sapiens, HepG2, 24 h, 24 hours of incubation with test compound, immunoprecipitation of apoB from medium, read-out: pIC50 value (=-log IC50 value), secretion of ApoB (converted)
Protocol: HepG2 cells were cultured in 24-well plates in MEM Rega 3 containing 10% fetal calf serum. At 70% confluency, the medium was changed and the test compound or carrier (DMSO, 0.4% final concentration) was added. After 24 hours of incubation, the medium was transferred to Eppendorf tubes and cleared by centrifugation. A sheep antibody directed against either apoB was added to the supernatant and the mixture was kept at 8° C. for 24 hours. Then, rabbit anti-sheep antibody was added and the immune complex was allowed to precipitate for 24 hours at 8° C. The immunoprecipitate was pelleted by centrifugation for 25 minutes at 1320 g and washed twice with a buffer containing 40 mM Mops, 40 mM NaH2PO4, 100 mM NaF, 0.2 mM DTT, 5 mM EDTA, 5 mM EGTA, 1% Triton-X-100, 0.5% sodium deoxycholate (DOC), 0.1% SDS, 0.2 μM leupeptin and 0.2 μM PMSF. Radioactivity in the pellet was quantified by liquid scintillation-counting. The IC50 values are usually converted to pIC50 values (=−log IC50 value) for ease of use.

| SMILES | IC50 [nM] |
| --- | --- |
| CCOC(=O)[C@H](c1ccccc1)N1CCN(c2ccc(-n3ccn([C@H](C)c4ccccc4)c3=O)cc2)CC1 (relative stereo) [Compound 267] | < 31.6 |
| CCOC(=O)[C@H](c1ccccc1)N1CCN(c2ccc(-n3ccn([C@H](C)c4ccc(F)cc4)c3=O)cc2)CC1 (relative stereo) [Compound 268] | 31.6 to 316 |
| CCOC(=O)[C@H](c1ccccc1)N1CCN(c2ccc(-n3ccn([C@H](C)c4cccc(C(F)(F)F)c4)c3=O)cc2)CC1 (relative stereo) [Compound 269] | 31.6 to 316 |
| CCOC(=O)[C@H](c1ccccc1)N1CCN(c2ccc(-n3ccn([C@H](C)c4ccc(C(F)(F)F)cc4)c3=O)cc2)CC1 (relative stereo) [Compound 270] | 31.6 to 316 |
| CCOC(=O)[C@H](c1ccccc1)N1CCN(c2ccc(-n3ccn([C@@H](C)c4ccccc4F)c3=O)cc2)CC1 (relative stereo) [Compound 272] | 316 to 3160 |
| CCOC(=O)[C@@H](c1ccccc1)N1CCN(c2ccc(-n3ccn([C@H](C)c4ccc(F)cc4)c3=O)cc2)CC1 (relative stereo) [Compound 273] | 316 to 3160 |
| CCOC(=O)[C@@H](c1ccccc1)N1CCN(c2ccc(-n3ccn([C@@H](C)c4cc(C(F)(F)F)cc(C(F)(F)F)c4)c3=O)cc2)CC1 (relative stereo) [Compound 274] | 316 to 3160 |
| CCOC(=O)[C@@H](c1ccccc1)N1CCN(c2ccc(-n3cnn([C@@H](C)c4ccccc4)c3=O)cc2)CC1 (relative stereo) [Compound 281] | 31.6 to 316 |
| CCOC(=O)[C@@H](c1ccccc1)N1CCN(c2ccc(-n3cnn([C@H](C)c4ccc(F)cc4)c3=O)cc2)CC1 (relative stereo) [Compound 298] | 316 to 3160 |
| CCOC(=O)[C@@H](c1ccccc1)N1CCN(c2ccc(-n3cnn([C@@H](C)c4ccc(F)cc4)c3=O)cc2)CC1 (relative stereo) [Compound 299] | 31.6 to 316 |
| CCOC(=O)[C@H](c1ccccc1)N1CCN(c2ccc(-n3ccn([C@H](C)c4ccccc4F)c3=O)cc2)CC1 (stereo in doubt) [Compound 271] | 31.6 to 316 |
| CCOC(=O)[C@@H](c1ccccc1)N1CCN(c2ccc(-n3ccn([C@@H](C)c4ccccc4F)c3=O)cc2)CC1 (stereo in doubt) [Compound 275] | 316 to 3160 |
| CCOC(=O)[C@@H](c1ccccc1)N1CCN(c2ccc(-n3cnn([C@H](C)c4ccccc4)c3=O)cc2)CC1 (stereo in doubt) [Compound 280] | 316 to 3160 |
| CCOC(=O)[C@H](c1ccccc1)N1CCN(c2ccc(-n3cnn([C@@H](C)c4ccccc4)c3=O)cc2)CC1 (stereo in doubt) [Compound 304] | 31.6 to 316 |
| CCOC(=O)[C@H](c1ccccc1)N1CCN(c2ccc(-n3ccn(C(C)c4cccc(F)c4)c3=O)cc2)CC1 (stereo in doubt) [Compound 337] | 31.6 to 316 |
| CCOC(=O)[C@H](c1ccccc1)N1CCN(c2ccc(-n3ccn(C(C)c4cccc(F)c4F)c3=O)cc2)CC1 (stereo in doubt) [Compound 338] | 31.6 to 316 |
| CCOC(=O)[C@H](c1ccccc1)N1CCN(c2ccc(-n3ccn(C(C)c4ccc(F)cc4F)c3=O)cc2)CC1 (stereo in doubt) [Compound 339] | 31.6 to 316 |
| CCOC(=O)[C@H](c1ccccc1)N1CCN(c2ccc(-n3ccn(C(C)c4cc(F)ccc4F)c3=O)cc2)CC1 (stereo in doubt) [Compound 340] | 31.6 to 316 |
| CCOC(=O)[C@H](c1ccccc1)N1CCN(c2ccc(-n3ccn(C(C)c4ccc(F)c(F)c4)c3=O)cc2)CC1 (stereo in doubt) [Compound 341] | 31.6 to 316 |
| CCOC(=O)[C@H](c1ccccc1)N1CCN(c2ccc(-n3ccn(C(C)c4cc(F)cc(F)c4)c3=O)cc2)CC1 (stereo in doubt) [Compound 342] | 31.6 to 316 |
| CCCN(CCC)C(=O)C(CCN1CCN(c2ccc(-n3ncn(C(C)C)c3=O)cc2)CC1)c1ccccc1 (stereo not shown) [Compound 3] | 31.6 to 316 |

| SMILES | IC50 [nM] |
| --- | --- |
| COCCNC(=O)C(c1ccccc1)N1CCN(c2ccc(-n3cnn(C(C)C)c3=O)cn2)CC1 (stereo not shown) [Compound 4] | 316 to 3160 |
| CC(C)n1cnn(-c2ccc(N3CCN(C(C(=O)Nc4ccccc4)c4ccccc4)CC3)cc2)c1=O (stereo not shown) [Compound 5] | 316 to 3160 |
| CC(C)n1ncn(-c2ccc(N3CCN(CC(C(=O)N(C)C)c4ccccc4)CC3)cc2)c1=O (stereo not shown) [Compound 6] | 31.6 to 316 |
| CC(C)NC(=O)C(c1ccccc1)N1CCN(c2ccc(-n3cnn(C(C)C)c3=O)cc2)CC1 (stereo not shown) [Compound 7] | 31.6 to 316 |
| CC(C)n1ncn(-c2ccc(N3CCN(C(C(=O)Nc4ccccc4)c4ccccc4)CC3)cc2)c1=O (stereo not shown) [Compound 8] | 31.6 to 316 |
| CCCC(C(=O)OCC)N1CCN(c2ccc(-n3cnn(C(C)C)c3=O)cc2)CC1 (stereo not shown) [Compound 9] | 316 to 3160 |
| CC(C)n1ncn(-c2ccc(N3CCN(C(C(=O)Nc4ccncc4)c4ccccc4)CC3)cc2)c1=O (stereo not shown) [Compound 10] | 316 to 3160 |
| CC(C)n1ncn(-c2ccc(N3CCN(C(C(=O)Nc4ccc5c(c4)CCC5)c4ccccc4)CC3)cc2)c1=O (stereo not shown) [Compound 11] | < 31.6 |
| Cc1cccc(NC(=O)C(c2ccccc2)N2CCN(c3ccc(-n4cnn(C(C)C)c4=O)cc3)CC2)n1 (stereo not shown) [Compound 12] | 316 to 3160 |
| CCOC(=O)C(c1cccs1)N1CCN(c2ccc(-n3cnn(C(C)C)c3=O)cc2)CC1 (stereo not shown) [Compound 13] | 316 to 3160 |
| CC(C)n1ncn(-c2ccc(N3CCN(C(C(=O)Nc4cccc5cccnc45)c4ccccc4)CC3)cc2)c1=O (stereo not shown) [Compound 15] | 316 to 3160 |
| CC(C)n1ncn(-c2ccc(N3CCN(C(C(=O)Nc4cccnc4)c4ccccc4)CC3)cc2)c1=O (stereo not shown) [Compound 16] | 316 to 3160 |
| CCOC(=O)C(c1ccccc1)N1CCN(c2ccc(-n3cnn(C(C)C)c3=O)cc2)CC1 (stereo not shown) [Compound 17] | 316 to 3160 |
| CNC(=O)C(c1ccccc1)N1CCN(c2ccc(-n3cnn(C(C)C)c3=O)cn2)CC1 (stereo not shown) [Compound 18] | 316 to 3160 |
| CC(C)n1ncn(-c2ccc(C3CCN(C(C(=O)Nc4ccccc4)c4ccccc4)CC3)cc2)c1=O (stereo not shown) [Compound 19] | 31.6 to 316 |
| CC(C)n1ncn(-c2ccc(C3CCN(C(C(=O)NCc4ccccc4)c4ccccc4)CC3)cc2)c1=O (stereo not shown) [Compound 20] | 31.6 to 316 |
| CCC(C)n1ncn(-c2ccc(N3CCN(C(C(=O)NC(C)C)c4ccccc4)CC3)cc2)c1=O (stereo not shown) [Compound 21] | 31.6 to 316 |
| CCC(C)n1ncn(-c2ccc(N3CCN(C(C(=O)NCc4ccccc4)c4ccccc4)CC3)cc2)c1=O (stereo not shown) [Compound 22] | 31.6 to 316 |
| CCC(C)n1ncn(-c2ccc(N3CCN(C(C(=O)Nc4ccccc4)c4ccccc4)CC3)cc2)c1=O (stereo not shown) [Compound 23] | 31.6 to 316 |
| CCC(C)n1ncn(-c2ccc(N3CCN(C(C(=O)N(C)C)c4ccccc4)CC3)cc2)c1=O (stereo not shown) [Compound 24] | 31.6 to 316 |
| O=C(NCc1ccccc1)C(c1ccccc1)N1CCN(c2ccc(-n3nc(-c4ccccc4)n(-c4ccccc4)c3=O)cc2)CC1 (stereo not shown) [Compound 25] | 316 to 3160 |

| SMILES | IC50 [nM] |
| --- | --- |
| CCNC(=O)C(c1ccccc1)N1CCN(c2ccc(-n3nc(-c4ccccc4)n(-c4ccccc4)c3=O)cc2)CC1 (stereo not shown) [Compound 26] | 316 to 3160 |
| CCNC(=O)C(c1ccccc1)N1CCN(c2ccc(-n3c(-c4ccccc4)nn(-c4ccccc4)c3=O)cc2)CC1 (stereo not shown) [Compound 28] | 316 to 3160 |
| COC(=O)C(c1ccccc1)N1CCN(c2ccc(-n3nc(-c4ccccc4)n(-c4ccccc4)c3=O)cc2)CC1 (stereo not shown) [Compound 29] | 316 to 3160 |
| CCCNC(=O)C(c1ccccc1)N1CCN(c2ccc(-n3nc(-c4ccccc4)n(C(C)C)c3=O)cc2)CC1 (stereo not shown) [Compound 30] | 316 to 3160 |
| CCNC(=O)C(c1ccccc1)N1CCN(c2ccc(-n3c(-c4ccccc4)nn(C(C)C)c3=O)cc2)CC1 (stereo not shown) [Compound 31] | 316 to 3160 |
| CCCNC(=O)C(c1ccccc1)N1CCN(c2ccc(-n3c(-c4ccccc4)nn(C(C)C)c3=O)cc2)CC1 (stereo not shown) [Compound 32] | 316 to 3160 |
| CC(C)n1nc(-c2ccccc2)n(-c2ccc(N3CCN(C(C(=O)NCc4ccccc4)c4ccccc4)CC3)cc2)c1=O (stereo not shown) [Compound 33] | 316 to 3160 |
| COC(=O)C(c1ccccc1)N1CCN(c2ccc(-n3nc(-c4ccccc4)n(C(C)C)c3=O)cc2)CC1 (stereo not shown) [Compound 34] | 316 to 3160 |
| COC(=O)C(c1ccccc1)N1CCN(c2ccc(-n3c(-c4ccccc4)nn(C(C)C)c3=O)cc2)CC1 (stereo not shown) [Compound 35] | 316 to 3160 |
| COC(=O)C(c1ccccc1)N1CCN(c2ccc(-n3ncn(C(C)C)c3=O)cc2)CC1 (stereo not shown) [Compound 36] | 316 to 3160 |
| CC(C)n1ncn(-c2ccc(N3CCN(C(C(=O)Nc4ccccc4)c4ccccc4)CC3)nc2)c1=O (stereo not shown) [Compound 37] | 316 to 3160 |
| CCCOC(=O)C(c1ccccc1)N1CCN(c2ccc(-n3cnn(C(C)C)c3=O)cc2)CC1 (stereo not shown) [Compound 38] | 316 to 3160 |
| CCNC(=O)C(c1ccccc1)N1CCN(c2ccc(-n3nc(C)n(C(C)C)c3=O)cc2)CC1 (stereo not shown) [Compound 39] | 316 to 3160 |
| Cc1nn(-c2ccc(N3CCN(C(C(=O)NCc4ccccc4)c4ccccc4)CC3)cc2)c(=O)n1C(C)C (stereo not shown) [Compound 40] | 316 to 3160 |
| CCCOC(=O)C(CN1CCN(c2ccc(-n3cnn(C(C)C)c3=O)cc2)CC1)c1ccccc1 (stereo not shown) [Compound 41] | 316 to 3160 |
| CCCCNC(=O)C(c1ccccc1)N1CCN(c2ccc(-n3cnn(C(C)C)c3=O)cn2)CC1 (stereo not shown) [Compound 42] | 316 to 3160 |
| CC(C)CNC(=O)C(c1ccccc1)N1CCN(c2ccc(-n3cnn(C(C)C)c3=O)cn2)CC1 (stereo not shown) [Compound 43] | 316 to 3160 |
| CCCCCNC(=O)C(c1ccccc1)N1CCN(c2ccc(-n3cnn(C(C)C)c3=O)cn2)CC1 (stereo not shown) [Compound 44] | 31.6 to 316 |
| CC(C)n1ncn(-c2ccc(N3CCN(C(C(=O)NCc4ccccn4)c4ccccc4)CC3)nc2)c1=O (stereo not shown) [Compound 45] | 316 to 3160 |
